Assay results: article PMC5007854, “β-Nitrostyrenes as Potential Anti-leishmanial Agents” (Frontiers in Microbiology, 2016)
Values after ≈ are worked out from the molar mass of the structure shown. Read-outs that look alike come from different tables or passages of the source.

Tests used:
Format in all cases: cell-based
[1] = system: Staphylococcus aureus ATCC 29213; test: Broth microdilution antibacterial susceptibility (MIC/MBC); settings: for MIC / MBC: Staphylococcus aureus; for MIC: read-out: MIC, Sa ATCC 29213; for MBC: ≥99.9% reduction of original inoculum, read-out: MBC, Sa ATCC 29213
Source text: (§1) One reference each of the following species was used for their in vitro susceptibility to β-nitrostyrene in this study: Staphylococcus aureus ATCC 29213, Staphylococcus epidermidis ATCC 14990, Escherichia coli ATCC 25922, Pseudomonas aeruginosa ATCC 27853, Candida albicans ATCC 90028, Candida glabrata ATCC 90030, Aspergillus fumigatus ATCC 16424 and Aspergillus niger ATCC 16404. These strains were procured from the American Type Culture Collection (ATCC, Manassas, VA, USA).
(§2) The antibacterial and antifungal activities of the β-nitrostyrenes were performed by broth microdilution methods as per the guidelines of Clinical and Laboratory Standard Institute (Wayne, [1998], [2008a],[b],[c]) by using Mueller-Hinton broth (MHB; Becton-Dickinson, Cockeysville, MD, USA) supplemented with calcium (25 mg/L) and magnesium (12.5 mg/L) for bacterial strains while as RPMI 1640 medium with L-glutamine and without sodium bicarbonate, buffered to pH 7.0 with 0.165 M 3-(N-morpholino) propanesulfonic acid (MOPS; both from Sigma) was used for fungal strains. Stock solutions were prepared in 100% dimethyl sulfoxide (DMSO; Sigma; distilled water was used for ciprofloxacin), with a final DMSO concentration of 1% (vol. per vol.) and two-fold serial dilutions were prepared in media in amounts of 100 μL per well in 96-well U-bottom microtiter plates (Tarsons, Kolkata, India) to yield twice the final concentration required for testing, which ranged from 64 to 0.12 μg/mL for β-nitrostyrenes and 16 to 0.03 μg/mL for ciprofloxacin as well as amphotericin B. Stock inoculum suspensions of the bacteria, Candida species and Aspergillus species were prepared in sterile normal saline (0.85%) containing 0.05% polysorbate 20 (NST) from overnight (3 to 5-day old for Aspergillus species) strains grown on Trypticase soy agar (TSA; Becton-Dickinson) and potato dextrose agar (Difco Laboratories, Detroit, MI, USA) respectively at 35°C. Inocula were verified for each assay by plating onto agar plates for colony enumeration. These suspensions were further diluted in the respective test medium and a 100 μl volume of this diluted inoculum was added to each well of the plate, resulting in a final inoculum concentration of approximately 5 × 10^5 CFU/mL for bacter1ia, (Wayne, [2008a]) approximately 2.5 × 10^4 CFU/ml for Candida species (Pfaller et al., [2004]) while as 0.4 × 10^4 to 5 × 10^4 CFU/mL for Aspergillus species (Wayne, [2008c]). Untreated growth control, vehicle control (DMSO) and sterility control wells were included for each isolate tested. Ciprofloxacin and amphotericin B served as the standard drug controls for bacterial and fungal strains, respectively. The microtiter plates were incubated at 35°C for 24 h for bacterial strains and 48 h for fungal strains. The plates were read visually and the minimum inhibitory concentration (MIC) was defined as the lowest concentration of test sample that prevented visible growth with respect to the growth control.
(§3) The minimum bactericidal concentration (MBC) and minimum fungicidal concentration (MFC) were determined by plating 100 μl volumes on agar plates from the wells showing no visible growth (clear MIC well). The plates were incubated as described above in MIC measurements. […] All experiments were conducted twice in duplicates on separate occasions with freshly prepared inoculums and stock solutions.

[2] = system: Pseudomonas aeruginosa ATCC 27853; test: as above; settings: Pseudomonas aeruginosa; for MIC: broth microdilution, 35°C, 24 h, read-out: MIC, Pa ATCC 27853; for MBC: ≥99.9% reduction of original inoculum, read-out: MBC, Pa ATCC 27853
Source text: as §1, §2, §3

[3] = system: Escherichia coli ATCC 25922; test: as above; settings: Escherichia coli; for MIC: broth microdilution, 35°C, 24 h, read-out: MIC, Ec ATCC 25922; for MBC: ≥99.9% reduction of original inoculum, read-out: MBC, Ec ATCC 25922
Source text: as §1, §2, §3

[4] = system: Staphylococcus epidermidis ATCC 14990; test: as above; settings: for MIC / MBC: Staphylococcus epidermidis; for MIC: read-out: MIC, Se ATCC 14990; for MBC: ≥99.9% reduction of original inoculum, read-out: MBC, Se ATCC 14990
Source text: as §1, §2, §3

[5] = system: Candida glabrata ATCC 90030; test: Broth microdilution antifungal susceptibility (MIC/MFC); settings: Nakaseomyces glabratus; for MIC: broth microdilution, 35°C, 48 h, read-out: MIC, Cg ATCC 90030; for MFC: ≥99.9% reduction of original inoculum, read-out: MFC, Cg ATCC 90030
Source text: as §1, §2, §3

[6] = system: Aspergillus niger ATCC 16404; test: as above; settings: Aspergillus niger; for MIC: broth microdilution, 35°C, 48 h, read-out: MIC, An ATCC 16404; for MFC: ≥99.9% reduction of original inoculum, read-out: MFC, An ATCC 16404
Source text: as §1, §2, §3

[7] = system: Candida albicans ATCC 90028; test: as above; settings: Candida albicans; for MIC: broth microdilution, 35°C, 48 h, read-out: MIC, Ca ATCC 90028; for MFC: ≥99.9% reduction of original inoculum, read-out: MFC, Ca ATCC 90028
Source text: as §1, §2, §3

[8] = system: Aspergillus fumigatus ATCC 16424; test: as above; settings: Aspergillus fumigatus; for MIC: broth microdilution, 35°C, 48 h, read-out: MIC, Af ATCC 16424; for MFC: ≥99.9% reduction of original inoculum, read-out: MFC, Af ATCC 16424
Source text: as §1, §2, §3

[9] = ATCC29213, 24 h, broth microdilution, 35°C, 24 h
[10] = ATCC14990, 24 h, broth microdilution, 35°C, 24 h
[11] = broth microdilution, 35°C, 24 h

| SMILES | MIC [1, 9] | MBC ([1]; ATCC29213) | MIC ([2]; ATCC27853, 24 h) | MBC ([2]; ATCC27853) | MIC ([3]; ATCC25922, 24 h) | MBC ([3]; ATCC25922) | MIC [4, 10] | MBC ([4]; ATCC14990) | MIC ([5]; ATCC90030, 48 h) | MFC ([5]; ATCC90030) | MIC ([6]; ATCC16404, 48 h) | MFC ([6]; ATCC16404) | MIC ([7]; ATCC90028, 48 h) | MFC ([7]; ATCC90028) | MIC ([8]; ATCC16424, 48 h) | MFC ([8]; ATCC16424) | also measured |
| --- | --- | --- | --- | --- | --- | --- | --- | --- | --- | --- | --- | --- | --- | --- | --- | --- | --- |
| O=C(O)c1cn(C2CC2)c2cc(N3CCNCC3)c(F)cc2c1=O [Cipro, Ciprofloxacin, reference compound] | 0.25 mg/L (≈ 0.754 µM) | 0.5 mg/L (≈ 1.51 µM) | 0.25 mg/L (≈ 0.754 µM) | 1 mg/L (≈ 3.02 µM) | < 0.03 mg/L | < 0.03 mg/L | 0.25 mg/L (≈ 0.754 µM) | 0.25 mg/L (≈ 0.754 µM) | – | – | – | – | – | – | – | – | – |
| O=[N+]([O-])/C=C/c1ccc(Cl)cc1 [Compound 1, 1-chloro-4-((E)-2-nitrovinyl) benzene] | 32 mg/L (≈ 174 µM) | 32 mg/L (≈ 174 µM) | 32 mg/L (≈ 174 µM) | 64 mg/L (≈ 349 µM) | 32 mg/L (≈ 174 µM) | 32 mg/L (≈ 174 µM) | 16 mg/L (≈ 87.1 µM) | 16 mg/L (≈ 87.1 µM) | 4 mg/L (≈ 21.8 µM) | 4 mg/L (≈ 21.8 µM) | 4 mg/L (≈ 21.8 µM) | 4 mg/L (≈ 21.8 µM) | 32 mg/L (≈ 174 µM) | 32 mg/L (≈ 174 µM) | 8 mg/L (≈ 43.6 µM) | 8 mg/L (≈ 43.6 µM) | – |
| C/C(=C\c1ccc(Cl)cc1)[N+](=O)[O-] [Compound 2, 1-chloro-4-((E)-2-nitroprop-1-enyl) benzene] | – | > 64 mg/L | – | > 64 mg/L | – | > 64 mg/L | – | 32 mg/L (≈ 162 µM) | – | 32 mg/L (≈ 162 µM) | – | > 64 mg/L | – | > 64 mg/L | – | > 64 mg/L | MIC ([1]; ATCC29213, broth microdilution, 35°C, 24 h): > 64 mg/L; MIC ([2]; ATCC27853): > 64 mg/L; MIC ([3]; ATCC25922): > 64 mg/L; MIC ([4]; ATCC14990, broth microdilution, 35°C, 24 h): 32 mg/L (≈ 162 µM); MIC ([5]; ATCC90030): 32 mg/L (≈ 162 µM); MIC ([6]; ATCC16404): 64 mg/L (≈ 324 µM); MIC ([7]; ATCC90028): > 64 mg/L; MIC ([8]; ATCC16424): > 64 mg/L |
| CC/C(=C\c1ccc(Cl)cc1)[N+](=O)[O-] [Compound 3, 1-chloro-4-((E)-2-nitrobut-1-enyl) benzene] | 2 to 32 mg/L (≈ 9.45 to 151 µM) | 4 mg/L (≈ 18.9 µM) | – | > 64 mg/L | – | > 64 mg/L | 2 to 16 mg/L (≈ 9.45 to 75.6 µM) | 2 mg/L (≈ 9.45 µM) | – | > 64 mg/L | – | 32 mg/L (≈ 151 µM) | – | > 64 mg/L | – | 64 mg/L (≈ 302 µM) | MIC, Sa ATCC 29213 [1, 11]: 4 mg/L (≈ 18.9 µM); MIC, Se ATCC 14990 [4, 11]: 2 mg/L (≈ 9.45 µM) |
| CN(C)c1ccc(/C=C/[N+](=O)[O-])cc1 [Compound 4, N,N-dimethyl-4-((E)-2-nitrovinyl) benzenamine] | > 64 mg/L | > 64 mg/L | > 64 mg/L | > 64 mg/L | > 64 mg/L | > 64 mg/L | > 64 mg/L | > 64 mg/L | 32 mg/L (≈ 166 µM) | 32 mg/L (≈ 166 µM) | 64 mg/L (≈ 333 µM) | > 64 mg/L | > 64 mg/L | > 64 mg/L | 64 mg/L (≈ 333 µM) | > 64 mg/L | – |
| C/C(=C\c1ccc(N(C)C)cc1)[N+](=O)[O-] [Compound 5, N,N-dimethyl-4-((E)-2-nitroprop-1-enyl) benzenamine] | > 64 mg/L | > 64 mg/L | > 64 mg/L | > 64 mg/L | > 64 mg/L | > 64 mg/L | > 64 mg/L | > 64 mg/L | 32 mg/L (≈ 155 µM) | 32 mg/L (≈ 155 µM) | 64 mg/L (≈ 310 µM) | > 64 mg/L | > 64 mg/L | > 64 mg/L | > 64 mg/L | > 64 mg/L | – |
| CC/C(=C\c1ccc(N(C)C)cc1)[N+](=O)[O-] [Compound 6, N,N-dimethyl-4-((E)-2-nitrobut-1-enyl) benzenamine] | > 64 mg/L | > 64 mg/L | > 64 mg/L | > 64 mg/L | > 64 mg/L | > 64 mg/L | > 64 mg/L | > 64 mg/L | 32 mg/L (≈ 145 µM) | 32 mg/L (≈ 145 µM) | 64 mg/L (≈ 291 µM) | > 64 mg/L | > 64 mg/L | > 64 mg/L | > 64 mg/L | > 64 mg/L | – |
| COc1ccc(/C=C/[N+](=O)[O-])cc1 [Compound 13, 1-methoxy-4-((E)-2-nitrovinyl) benzene] | 64 mg/L (≈ 357 µM) | 64 mg/L (≈ 357 µM) | > 64 mg/L | > 64 mg/L | > 64 mg/L | > 64 mg/L | 32 mg/L (≈ 179 µM) | 32 mg/L (≈ 179 µM) | 32 mg/L (≈ 179 µM) | 32 mg/L (≈ 179 µM) | 64 mg/L (≈ 357 µM) | 64 mg/L (≈ 357 µM) | 64 mg/L (≈ 357 µM) | 64 mg/L (≈ 357 µM) | 64 mg/L (≈ 357 µM) | > 64 mg/L | – |
